The record followed here is ChEMBL document CHEMBL1201862, “PubChem BioAssay data set” (2004).

Some test systems named below: NCI-H460; SK-MEL-5; MDA-N; U-251; RXF 393; IGROV-1; HCT-116; SR; OVCAR-8; HT-29; UO-31; MOLT-4; SF-268; NCI-H226; SF-539; HL-60; NCI-H23; SK-OV-3; OVCAR-5.
Assay in all cases: growth of human tumour cells (NCI), 48 h

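Cells were grown in 96-well plates and exposed to each compound for 48 hours at five concentrations; endpoints were interpolated linearly between bracketing concentrations, or set to the highest concentration if not reached. Here, GI50 denotes the concentration required for 50% inhibition of growth.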 Active and inactive are the calls of the source. Cut-off read from the data, not from the text of the source: active = GI50 up to about 1.1 µM and inactive = higher.

With `CC[C@@H]1CC[C@@H]2[C@H](CC[C@]3(C)[C@@H](OS(=O)(=O)c4ccc(C)cc4)CC[C@@H]23)[C@H]1COS(=O)(=O)c1ccc(C)cc1`, the GI50 with NCI-H460, with SK-MEL-5, in the test with MDA-N, in the test on U-251, with RXF 393 and in the test on IGROV-1 was > 100 µM (inactive) in each case. For the same compound, the GI50 was > 100 µM (inactive) in the test with HCT-116; > 100 µM (inactive) with SR; > 100 µM (inactive) in the test on OVCAR-8; > 100 µM (inactive) with HT-29; 51.4 µM (inactive) with UO-31; > 100 µM (inactive) in the test with MOLT-4. Further, the GI50 in the test with SF-268, with NCI-H226, with SF-539 and in the test with HL-60 was > 100 µM (inactive) throughout.

On to `O=C(C/N=C(\CN(c1ccccc1)c1ccccc1)Oc1c([N+](=O)[O-])cc([N+](=O)[O-])cc1[N+](=O)[O-])N1CCNCC1`, for which the GI50 with NCI-H460 was > 100 µM (inactive); in the test with SK-MEL-5, 28.7 µM (inactive); in the test on MDA-N, > 100 µM (inactive); in the test on U-251, > 100 µM (inactive); in the test on RXF 393, 69.8 µM (inactive); in the test on IGROV-1, 56.8 µM (inactive). Moreover, the GI50 was > 100 µM (inactive) in the test with NCI-H23; > 100 µM (inactive) in the test on HCT-116; 0.622 µM (active) with SK-OV-3; > 100 µM (inactive) with OVCAR-5; > 100 µM (inactive) in the test on SR; 61.7 µM (inactive) in the test on OVCAR-8. Besides, the GI50 in the test with HT-29, in the test with MOLT-4, in the test on SF-268, in the test on NCI-H226, with SF-539 and in the test on HL-60 was > 100 µM (inactive) each time.

In the case of `Cc1ccc(-c2n[nH]c(=O)[nH]2)cc1[N+](=O)[O-]`, the GI50 with NCI-H460, in the test on SK-MEL-5, in the test with MDA-N, in the test on U-251, in the test with RXF 393 and in the test on IGROV-1 was > 100 µM (inactive) in each case. In addition, the GI50 in the test with NCI-H23, in the test with HCT-116, in the test with OVCAR-5, in the test on SR, with OVCAR-8 and in the test on HT-29 was > 100 µM (inactive) in each case. Further, the GI50 is 27.5 µM (inactive) in the test on UO-31; > 100 µM (inactive) with MOLT-4; > 100 µM (inactive) with SF-268; > 100 µM (inactive) with NCI-H226; > 100 µM (inactive) in the test with SF-539; > 100 µM (inactive) in the test on HL-60.

For `CC1CCCCN1CC(=O)c1ccc2c(c1)Sc1ccccc1O2` (stereo not given), the GI50 in the test on NCI-H460 was 14.2 µM (inactive); with MDA-N, 15.2 µM (inactive); in the test on U-251, 14.1 µM (inactive); with RXF 393, 13.8 µM (inactive); with IGROV-1, 6.49 µM (inactive); in the test on NCI-H23 it was 15.2 µM (inactive). Besides, the GI50 is 14.2 µM (inactive) in the test with HCT-116; 16.4 µM (inactive) in the test on SK-OV-3; 18.1 µM (inactive) in the test on OVCAR-5; 15.3 µM (inactive) with SR; 15 µM (inactive) in the test on OVCAR-8; 8.61 µM (inactive) in the test with HT-29. Moreover, the GI50 in the test on UO-31 was 12.3 µM (inactive); in the test with MOLT-4, 19.3 µM (inactive); with SF-268, 18.7 µM (inactive); in the test with NCI-H226, 12.9 µM (inactive); in the test with SF-539, 16.9 µM (inactive); in the test with HL-60, 10.2 µM (inactive).

Regarding `O=C1c2c(Br)sc(Br)c2[C@@H](O)[C@H]1O`, the GI50 in the test on NCI-H460 is 17.2 µM (inactive); in the test with SK-MEL-5 it was 18.4 µM (inactive); with MDA-N, 16.3 µM (inactive); with U-251, 7.48 µM (inactive); in the test with RXF 393 it was 16.2 µM (inactive); in the test on IGROV-1 it was 18.2 µM (inactive). The GI50 in the test on NCI-H23 was 7.21 µM (inactive); in the test with HCT-116, 16.8 µM (inactive); with SK-OV-3, 15.6 µM (inactive); with OVCAR-5, 19.9 µM (inactive); in the test with SR, 1.96 µM (inactive); with OVCAR-8, 14.1 µM (inactive). In addition, the GI50 is 19.1 µM (inactive) in the test with HT-29; 17.1 µM (inactive) with UO-31; 5.97 µM (inactive) in the test with MOLT-4; 10.8 µM (inactive) with SF-268; 17.6 µM (inactive) with NCI-H226; 15.9 µM (inactive) in the test with SF-539. In the test with HL-60, the GI50 is 9.14 µM (inactive).

In the case of `O=C1/C(=C/c2ccc(O)cc2)CCc2ccc([N+](=O)[O-])cc21`, the GI50 is 45.9 µM (inactive) in the test with NCI-H460; > 81.8 µM (inactive) in the test on SK-MEL-5; > 100 µM (inactive) in the test with MDA-N; 60.4 µM (inactive) with U-251; 33.3 µM (inactive) in the test on RXF 393; 61.2 µM (inactive) with IGROV-1. Further, the GI50 with NCI-H23 was 36.1 µM (inactive); with HCT-116 it was 75.5 µM (inactive); in the test on SK-OV-3, > 84.7 µM (inactive); in the test on OVCAR-5, > 51.5 µM (inactive); in the test on SR it was 1.63 µM (inactive); with OVCAR-8, > 100 µM (inactive). Further, the GI50 is > 100 µM (inactive) in the test with HT-29; 23 µM (inactive) in the test on UO-31; 3.63 µM (inactive) with MOLT-4; > 61.7 µM (inactive) in the test with SF-268; 28.7 µM (inactive) in the test with NCI-H226; > 90.6 µM (inactive) with SF-539. Besides, the GI50 with HL-60 was 5.5 µM (inactive).

Regarding `CCCCCCOc1ccc(NC2=C(Cl)C(=O)c3c(O)ccc(O)c3C2=O)cc1`, the GI50 was 1.01 µM (active) in the test with NCI-H460; 1.31 µM (inactive) with SK-MEL-5; 2.99 µM (inactive) in the test on MDA-N; 2.32 µM (inactive) in the test with U-251; 2.32 µM (inactive) in the test on RXF 393; 2.4 µM (inactive) in the test on NCI-H23. Moreover, the GI50 is 1.6 µM (inactive) in the test with HCT-116; > 10 µM (inactive) with SK-OV-3; > 10 µM (inactive) in the test with OVCAR-5; 1.94 µM (inactive) in the test with SR; 2.09 µM (inactive) in the test on OVCAR-8; 2.11 µM (inactive) in the test on HT-29. In addition, the GI50 in the test with UO-31 was 2.2 µM (inactive); in the test with MOLT-4 it was 2.31 µM (inactive); in the test with SF-268, 6.22 µM (inactive); in the test with NCI-H226, 3.88 µM (inactive); in the test with SF-539, 2.4 µM (inactive); with HL-60 it was 1.77 µM (inactive).

Turning to `CC(=O)OC12c3ccccc3C(c3ccccc31)C1C(=O)N(N=C(C)C)C(=O)C12` (stereo not given), the GI50 in the test with SK-MEL-5, with MDA-N, in the test on U-251, in the test on RXF 393, in the test on IGROV-1 and in the test with NCI-H23 was > 100 µM (inactive) in each case. Further, the GI50 with HCT-116, in the test with SK-OV-3, with OVCAR-5, in the test on SR, with OVCAR-8 and in the test with HT-29 was > 100 µM (inactive) throughout. The GI50 in the test with UO-31, with MOLT-4, with SF-268, in the test with NCI-H226, with SF-539 and in the test with HL-60 was > 100 µM (inactive) in each case.

As to `O=c1cc(-c2ccccc2)nc(-n2[nH]c3c(c2=O)CCCC3)[nH]1`, the GI50 with NCI-H460 is 1.08 µM (active); with SK-MEL-5 it was 4.78 µM (inactive); with MDA-N, 7.29 µM (inactive); in the test with U-251 it was 2.55 µM (inactive); with RXF 393 it was 0.656 µM (active); in the test on IGROV-1, 4.53 µM (inactive). Besides, the GI50 is 7.33 µM (inactive) with NCI-H23; 2.7 µM (inactive) in the test on HCT-116; 17.4 µM (inactive) in the test on SK-OV-3; 92.5 µM (inactive) in the test with OVCAR-5; 1.03 µM (active) with SR; 4.31 µM (inactive) in the test on HT-29. Also, the GI50 was 7.29 µM (inactive) in the test on UO-31; 2.9 µM (inactive) with MOLT-4; 2.7 µM (inactive) in the test on SF-268; 3.82 µM (inactive) in the test on NCI-H226; 4.98 µM (inactive) in the test with SF-539; 2.73 µM (inactive) in the test on HL-60.

Consider `COC(=O)c1c(C)cccc1C1CN=NC12Cc1cccc(C)c1C2=O` (stereo not given), for which the GI50 is 12.6 µM (inactive) with NCI-H460; 17.8 µM (inactive) in the test on SK-MEL-5; 33.6 µM (inactive) in the test on MDA-N; 39.4 µM (inactive) in the test on U-251; 30.5 µM (inactive) with RXF 393; 27.7 µM (inactive) in the test on IGROV-1. For the same compound, the GI50 was 32.2 µM (inactive) with NCI-H23; 28 µM (inactive) in the test on HCT-116; 85.7 µM (inactive) in the test with OVCAR-5; 26.7 µM (inactive) with SR; 33.9 µM (inactive) in the test on OVCAR-8; 33 µM (inactive) with HT-29. The GI50 with UO-31 was 14.4 µM (inactive); in the test on SF-268, 83.4 µM (inactive); in the test on NCI-H226, 20.9 µM (inactive); in the test with SF-539 it was 22.8 µM (inactive); in the test with HL-60, 11.7 µM (inactive).

As for `O=C(NC1=C(Cl)C(=O)c2ccccc2C1=O)c1ccc(F)cc1`, the GI50 in the test on NCI-H460 was 2.87 µM (inactive); in the test on MDA-N it was 3.33 µM (inactive); in the test with U-251, 1.85 µM (inactive); with RXF 393, 1.25 µM (inactive); with IGROV-1, 1.7 µM (inactive); in the test on NCI-H23, 3.27 µM (inactive). Further, the GI50 is 0.455 µM (active) in the test on HCT-116; 4.85 µM (inactive) in the test on OVCAR-5; 3.66 µM (inactive) in the test with SR; 5.47 µM (inactive) in the test with OVCAR-8; 3.49 µM (inactive) with HT-29; 2.24 µM (inactive) in the test with MOLT-4. Also, the GI50 in the test with SF-268 is 7.57 µM (inactive); in the test on NCI-H226, 1.1 µM (active); in the test with SF-539, 4.4 µM (inactive); in the test with HL-60, 0.341 µM (active).
